Patent US20220040255A1, “CHEMOTHERAPEUTIC REMODELING OF THE GUT MICROBIOME” (THE SCRIPPS RESEARCH INSTITUTE, priority 2018, published 2022)

tested on: gut microbiota from cecum of LDLr−/− mice; test: in vitro en masse screening assay (cecum culture, 16S rRNA sequencing); assay type: cell-based; conditions: Chm- 2 μg
Protocol: We have established the following in vitro compound screening protocol for en masse gut microbiome remodeling. We obtain fresh gut microbiome content from LDLr^-/- mice conditioned for at least two weeks on WD by surgically removing cecum under anaerobic conditions. These samples are then mixed with growth media, distributed in 96-well plates, and incubated overnight in the presence of the test peptides. The activity and selectivity of each peptide for remodeling the gut microbiota community was assessed en masse by 16S rRNA sequencing of each well. A number of challenges had to be addressed in developing this protocol, including inoculum handling, choice of growth media, assay duration, etc. Our current assay culture condition maintains 50 bacterial genera (overnight culture), which is fairly representative of the 67 genera found in the uncultured community (Table 2). We used a distance scoring algorithm for a more refined compound selection, in which peptides that remodel the microbiota community most completely from the dysfunctional state (WD fed) toward the functional state (CHD fed) are scored higher. Briefly, we first eliminate cyclic D,L-α-peptides that have broad-spectrum antibacterial activity (inhibit >95% of growth of ≥25% of species in the community). The remaining compounds are then ranked based on how well they suppressed the bacterial species that grew in abundance in WD-fed mice. […] Among these, 40 genera decreased while 14 genera increased in abundance by WD feeding. Within the increased 11 genera, there were 19 bacterial species that were also present in our in vitro culture system. Accordingly, compounds were scored highly when they reduced the levels of 19 bacterial species (lowest summed differences in relative abundance) that were increased by WD feeding to be more similar to their levels in a CHD-fed microbiome (see Table 3 for peptide ranking). Based on these analyses, we chose two peptides for further in vivo validation and efficacy studies: the cationic peptide 1, […] NO:1), and the neutral peptide 11, […] NO:11), which ranked high within their respective peptide clusters. In vitro cecum culture and peptide screening. We screened a number of parameters to optimize the in vitro culture condition for maximal bacterial diversity in liquid culture, including a survey of several different growth media, dilution factors for plate inoculation, and incubation times; further details of the development of this in vitro screen will be reported elsewhere. Female LDLr^-/- mice (8-10 weeks of age) were fed a WD for two weeks. Cecum harvest and all assay steps were performed under anaerobic conditions (Coy Laboratory anaerobic chamber). Cecum contents from three mice were pooled for the assay to provide enough material and to minimize the individual variation in gut microbiome. Cecum contents were suspended in PBS (1.5 ml PBS per 100 mg of cecum content). The mixture was vortexed for 5 min and the supernatant was transferred to a new tube. The cecum content mixture was further diluted in Chopped Meat Carbohydrate Broth (BD 297307) for in vitro peptide screening. […] The concentration of peptide stock in DMSO was calculated based on A280 measurement. For each peptide, an initial 20 mM stock was made in DMSO and diluted to 1 mM in 10% sucrose. From that, a 0.64 mM peptide dilution in 10% sucrose was prepared, and each peptide was further diluted into the assay for peptide screening at two concentrations (64 μM and 16 μM). Bacterial DNA was harvested after 24-hour peptide treatment and isolated with Microbial DNA isolation kit (Mo Bio) following the manufacturer's instructions. 16S rRNA gene sequencing and processing. PCR amplicons of the V3-V4 16S rRNA region were amplified and sequenced using an Illumina MiSeq platform. […]

Molecule	ranked distance to chow
O=C(N[C@H](CO)[C@H](O)c1ccc([N+](=O)[O-])cc1)C(Cl)Cl [Chm, chloramphenicol, reference compound]	4

same assay, conditions: Chm- 8 μg

Molecule	ranked distance to chow
O=C(N[C@H](CO)[C@H](O)c1ccc([N+](=O)[O-])cc1)C(Cl)Cl [Chm, chloramphenicol, reference compound]	24

same assay, conditions: ranking in remodeling WD gut microbiota toward CHD microbiota composition

Molecule	ranked distance to chow
c[FwHlYoHq]	18
c[LlWhQk]	5
c[WlLlKkKs] [WllLlKkKs]	20
c[WlWlWkSk]	1
c[WwLlHsKk	3
c[WwQoHdKt]	15
c[YlWyKhAe]	23
c[YlYlYkSo]	13
c[YwElYsKq]	17
c[fWwYqHhQ]	25
c[lFlAlKhK]	8
c[lLwHoK]	7
c[wFkSkSkS]	19
c[wLeLwKsK]	9
c[wLfKwKkK]	6
c[wLhLwKrK]	11
c[wLlEeKkN]	21
c[wLlWkKkS]	10
c[wLwSeQeO] [wLwSeQsO]	16
c[wLwSeQhK]	22
c[wWwKsKsK]	12
